# Reference: article PMC8286840, “Identifying SARS-CoV-2 antiviral compounds by screening for small molecule inhibitors of Nsp3 papain-like protease” (Biochemical Journal, 2021)
# Where a name gives a salt, the structure may show the parent alone. Read-outs that look alike come from different tables or passages of the source.
# Experiments:
# [1] = biological target: T1, SARS-CoV-2 PLpro (nsp3 1564–1878) (Severe acute respiratory syndrome coronavirus 2, UniProt P0DTD1); experiment: biochemical; design: FRET-quenched peptide (Pro3) cleavage by PLpro, 10 min pre-incubation, slope over 20 min, normalised to no-compound control; settings: low concentration screen, read-out: % of control remaining
# [2] = biological target: T1, SARS-CoV-2 PLpro (nsp3 1564–1878); experiment: biochemical; design: FRET-quenched peptide (Pro3) cleavage by PLpro, 10 min pre-incubation, slope over 20 min, normalised to no-compound control; settings: high concentration screen, read-out: % of control remaining
compound,measurement,setting,value
NCCCNCCS [WR-1065 dihydrochloride],remaining activity at 1.25 µM,[1]; Well no.=6786,94.6%
same,remaining activity at 3.75 µM,[2]; Well no.=6786,94.3%
Cc1cccc(Nc2cc(Cl)nc(SCC(=O)O)n2)c1C [WY-14643],remaining activity at 1.25 µM,[1]; Well no.=4570,97.3%
same,remaining activity at 3.75 µM,[2]; Well no.=4570,103%
CCOC(=O)c1cnc(C#Cc2ccc3c(c2)C(C)(C)CC[S+]3[O-])nc1 (stereo not shown) [WYC-209],remaining activity at 1.25 µM,[1]; Well no.=7204,92.4%
same,remaining activity at 3.75 µM,[2]; Well no.=7204,90.8%
COC(=O)Nc1ccc(-c2nc(N3CCOCC3)c3cnn(C4CCN(C(=O)OC)CC4)c3n2)cc1 [WYE-354],remaining activity at 1.25 µM,[1]; Well no.=4769,101%
same,remaining activity at 3.75 µM,[2]; Well no.=4769,103%
COC(=O)Nc1ccc(-c2nc(N3CCOCC3)c3cnn(C4CCN(Cc5cccnc5)CC4)c3n2)cc1 [WYE-687],remaining activity at 1.25 µM,[1]; Well no.=4645,104%
same,remaining activity at 3.75 µM,[2]; Well no.=4645,103%
CNC(=O)Nc1ccc(-c2nc(N3CC4CCC(C3)O4)c3cnn(C4CCC5(CC4)OCCO5)c3n2)cc1 [WYE-125132],remaining activity at 1.25 µM,[1]; Well no.=4641,99.8%
same,remaining activity at 3.75 µM,[2]; Well no.=4641,104%
c1ccc(NCc2ccc(CNc3ccccn3)cc2)nc1 [WZ811],remaining activity at 1.25 µM,[1]; Well no.=7135,102%
same,remaining activity at 1.25 µM,[1]; Well no.=8459,98.2%
same,remaining activity at 3.75 µM,[2]; Well no.=7135,96.2%
same,remaining activity at 3.75 µM,[2]; Well no.=8459,88.4%
C=CC(=O)Nc1cccc(Oc2nc(Nc3ccc(N4CCN(C)CC4)cc3)ncc2Cl)c1 [WZ3146],remaining activity at 1.25 µM,[1]; Well no.=4711,103%
same,remaining activity at 3.75 µM,[2]; Well no.=4711,106%
C=CC(=O)Nc1cccc(Oc2nc(Nc3ccc(N4CCN(C)CC4)cc3OC)ncc2Cl)c1 [WZ4002],remaining activity at 1.25 µM,[1]; Well no.=4713,107%
same,remaining activity at 3.75 µM,[2]; Well no.=4713,106%
C=CC(=O)Nc1cccc(Sc2nc(Nc3ccc(N4CCN(C)CC4)cc3)ncc2Cl)c1 [WZ8040],remaining activity at 1.25 µM,[1]; Well no.=4717,107%
same,remaining activity at 3.75 µM,[2]; Well no.=4717,107%
c1ccc(NCc2ccc(CNc3ccccn3)cc2)nc1 [WZ 811],remaining activity at 1.25 µM,[1]; Well no.=4843,100%
same,remaining activity at 3.75 µM,[2]; Well no.=4843,102%
O=C(Oc1cccc(F)c1OC(=O)c1cccc(O)c1)c1cccc(O)c1 [WZB117],remaining activity at 1.25 µM,[1]; Well no.=8770,102%
same,remaining activity at 3.75 µM,[2]; Well no.=8770,101%
COc1cc(O)c2c(c1)oc(=O)c1c3cc(O)c(O)cc3oc21 [Wedelolactone],remaining activity at 1.25 µM,[1]; Well no.=3230,99.3%
same,remaining activity at 3.75 µM,[2]; Well no.=3230,98%
CCCCn1c2ccc(O)cc2c2c3c(c(-c4ccccc4Cl)cc21)C(=O)NC3=O [Wee1 Inhibitor II],remaining activity at 1.25 µM,[1]; Well no.=2685,90.9%
same,remaining activity at 3.75 µM,[2]; Well no.=2685,88.5%
O=C1NC(=O)c2c1c(-c1ccccc1Cl)cc1[nH]c3ccc(O)cc3c21 [Wee1 Inhibitor],remaining activity at 1.25 µM,[1]; Well no.=2683,97.3%
same,remaining activity at 3.75 µM,[2]; Well no.=2683,97.7%
COc1c(O)cc(O)c2c(=O)cc(-c3ccccc3)oc12 [Wogonin],remaining activity at 1.25 µM,[1]; Well no.=3735,96.1%
same,remaining activity at 3.75 µM,[2]; Well no.=3735,98.6%
COC[C@H]1OC(=O)c2coc3c2[C@@]1(C)C1=C(C3=O)C2CCC(=O)[C@@]2(C)C[C@H]1OC(C)=O (stereo partly shown) [Wortmannin from Penicillium funiculosum],remaining activity at 1.25 µM,[1]; Well no.=1386,92.9%
same,remaining activity at 3.75 µM,[2]; Well no.=1386,94.7%
COC[C@H]1OC(=O)c2coc3c2[C@@]1(C)C1=C(C3=O)[C@@H]2CCC(=O)[C@@]2(C)C[C@H]1OC(C)=O [Wortmannin],remaining activity at 1.25 µM,[1]; Well no.=3232,99.9%
same,remaining activity at 3.75 µM,[2]; Well no.=3232,102%
Oc1nc(-c2ccc(C(F)(F)F)cc2)nc2c1CSCC2 [XAV-939],remaining activity at 1.25 µM,[1]; Well no.=4719,102%
same,remaining activity at 3.75 µM,[2]; Well no.=4719,103%
CCN(Cc1ccccc1)C(=O)Cn1c(=O)n(C)c2cnc(-c3ccccc3)nc21 [XBD173],remaining activity at 1.25 µM,[1]; Well no.=6053,102%
same,remaining activity at 3.75 µM,[2]; Well no.=6053,100%
O=C(O)c1cc(C(F)(F)F)ccc1N1CC[C@H](OCc2ccccn2)C1 [XEN445],remaining activity at 1.25 µM,[1]; Well no.=8574,105%
same,remaining activity at 3.75 µM,[2]; Well no.=8574,109%
CCN(CC)CCCC(C)Nc1cc(/C=C/c2ccccc2Cl)nc2cc(Cl)ccc12 (stereo not shown) [XIB4035],remaining activity at 1.25 µM,[1]; Well no.=5692,89%
same,remaining activity at 3.75 µM,[2]; Well no.=5692,89.5%
COc1ccc(Cl)c(Nc2nc3ccccc3nc2NS(=O)(=O)c2cccc(NC(=O)C(C)(C)N)c2)c1 [XL147],remaining activity at 1.25 µM,[1]; Well no.=4669,105%
same,remaining activity at 3.75 µM,[2]; Well no.=4669,106%
CC[C@@H](C)Nc1cc(C(=O)N[C@H]2C[C@H]3CC[C@@H](C2)N3c2ccc(C(=O)C3CC3)cn2)c(C)cc1C(N)=O [XL888],remaining activity at 1.25 µM,[1]; Well no.=8982,90.5%
same,remaining activity at 3.75 µM,[2]; Well no.=8982,93.8%
CCOc1cc(N2CCC(O)CC2)ccc1Nc1ncc2c(n1)N(C)c1ccccc1C(=O)N2C [XMD8-92],remaining activity at 1.25 µM,[1]; Well no.=5565,93.8%
same,remaining activity at 3.75 µM,[2]; Well no.=5565,95.2%
CN1C(=O)c2sccc2N(C)c2nc(Nc3ccc(S(N)(=O)=O)cc3)ncc21 [XMU-MP-1],remaining activity at 1.25 µM,[1]; Well no.=8268,97%
same,remaining activity at 3.75 µM,[2]; Well no.=8268,91.6%
FC(F)(F)c1cccc(C2=CCN(CCc3ccc4ccccc4c3)CC2)c1 [Xaliproden hydrochloride],remaining activity at 1.25 µM,[1]; Well no.=5767,106%
same,remaining activity at 3.75 µM,[2]; Well no.=5767,105%
O=C(NCCNCC(O)COc1ccc(O)cc1)N1CCOCC1 (stereo not shown) [Xamoterol hemifumarate],remaining activity at 1.25 µM,[1]; Well no.=1436,95.5%
same,remaining activity at 1.25 µM,[1]; Well no.=1741,102%
same,remaining activity at 3.75 µM,[2]; Well no.=1436,95.1%
same,remaining activity at 3.75 µM,[2]; Well no.=1741,103%
CCCCCCOc1nsnc1C1=CCCN(C)C1 [Xanomeline (oxalate)],remaining activity at 1.25 µM,[1]; Well no.=8005,103%
same,remaining activity at 3.75 µM,[2]; Well no.=8005,100%
CCCn1c(=O)c2[nH]c(-c3ccc(OCC(=O)NCCN)cc3)nc2n(CCC)c1=O [Xanthine amine congener],remaining activity at 1.25 µM,[1]; Well no.=1532,95.7%
same,remaining activity at 3.75 µM,[2]; Well no.=1532,89.4%
O=c1[nH]c(=O)c2nc[nH]c2[nH]1 [Xanthine],remaining activity at 1.25 µM,[1]; Well no.=7203,97.4%
same,remaining activity at 3.75 µM,[2]; Well no.=7203,96.5%
COc1cc(O)c(CC=C(C)C)c(O)c1C(=O)/C=C/c1ccc(O)cc1 [Xanthohumol],remaining activity at 1.25 µM,[1]; Well no.=8578,106%
same,remaining activity at 3.75 µM,[2]; Well no.=8578,102%
OC[C@H]1O[C@@H](n2cnc3c(O)nc(O)nc32)[C@H](O)[C@@H]1O [Xanthosine],remaining activity at 1.25 µM,[1]; Well no.=7397,106%
same,remaining activity at 3.75 µM,[2]; Well no.=7397,107%
COc1c2occc2cc2ccc(=O)oc12 [Xanthotoxin],remaining activity at 1.25 µM,[1]; Well no.=3459,104%
same,remaining activity at 3.75 µM,[2]; Well no.=3459,106%
Cc1cccc(C)c1NC1=NCCCS1 [Xylazine (hydrochloride)],remaining activity at 1.25 µM,[1]; Well no.=6847,101%
same,remaining activity at 3.75 µM,[2]; Well no.=6847,95.9%
Cc1cccc(C)c1NC1=NCCCS1 [Xylazine],remaining activity at 1.25 µM,[1]; Well no.=1652,103%
same,remaining activity at 3.75 µM,[2]; Well no.=1652,106%
